Reference: patent US7803374B2, “Targeted atherosclerosis treatment” (Barnes-Jewish Hospital, priority 2004, dated 2010)
Where two headings read alike, the source gives them in different places.

B1: endostatin: anti-angiogenic agent (protein, UniProt P39060 1572-1754, looked up)
Endostatin: HSHRDFQPVLHLVALNSPLSGGMRGIRGADFQCFQQARAVGLAGTFRAFLSSRLQDLYSIVRRADRAAVPIVNLKDELLFPSWEALFSGSEGPLKPGARIFSFDGKDVLRHPTWPQKSVWHGSDPNGRRLTESYCETWRTEAPSATGQASSLLGGRLLGQSAASCHHAYIVLCIENSFMTASK
modifications: Endostatin
notes: anti-angiogenic agent

Experiments:
Apo E−/− mice = conditions: cited from earlier work; for foam cell deposition or fibromuscular lesion development: early atherogenesis; for effectiveness in later treatment: later periods of treatment (32 to 48 weeks)
[1] = high dose; cited from earlier work
[2] = In vitro dissolution: release of fumagillin from nanoparticles by dialysis; format: physicochemical; conditions: generally, due to hydrophobic nature
Method: Fumagillin nanoparticle emulsions (250 μl) were dialyzed in 60,000 MW cutoff dialysis tubing against 3.5 ml of releasing medium (0.9% NaCl, 0.2 mg/ml human serum albumin and 0.05% sodium azide) and continuously agitated at 37° C. The releasing medium was replaced daily and analyzed for released fumagillin concentration. Fumagillin was analyzed by reverse-phase HPLC (Waters Corporation). Chromatography was performed using a Waters Novapak C18, 60 Å, 4 μm reversed-phase column (3.9×150 mm) with an isocratic 50% acetonitrile/0.05% of phosphoric acid mobile phase (1 ml/min at ambient temperature).

[3] = treated for 4 months (20 to 36 weeks)

| Molecule | intimal vessels and atheroma expansion (Apo E−/− mice; 30 mg per kg every other day for 13 weeks) | foam cell deposition or fibromuscular lesion development (Apo E−/− mice) | effectiveness in later treatment (Apo E−/− mice) | intimal vessels and atheroma expansion (Apo E−/− mice; [3]) | side effects [1] | fumagillin released (general statement) [2] [%] |
| --- | --- | --- | --- | --- | --- | --- |
| CO[C@@H]1[C@H](OC(=O)NC(=O)CCl)CC[C@]2(CO2)[C@H]1[C@@]1(C)O[C@@H]1CC=C(C)C [TNP-470] | reduction in intimal vessels and diminished atheroma expansion | Neither endostatin nor TNP-470 altered | less effective | reduced number of intimal vessels and diminished atheroma expansion | serious side effects such as neurocognitive toxicity | – |
| CO[C@@H]1[C@H](OC(=O)/C=C/C=C/C=C/C=C/C(=O)O)CC[C@]2(CO2)[C@H]1[C@@]1(C)O[C@@H]1CC=C(C)C [fumagillin] | – | – | – | – | – | < 10 |
| B1 | – | Neither endostatin nor TNP-470 altered | less effective | reduced number of intimal vessels and diminished atheroma expansion | – | – |
